Source: patent US12138256B2, “Treatment of cardiopulmonary disorders” (Bayer Aktiengesellschaft, priority 2021, dated 2024)

Legend:
[1] = tested on: acetylcholine-induced bronchospasm; assay: Bronchorelaxation in vivo: acetylcholine-induced bronchoconstriction in Brown Norway rats, RL and Cdyn (C-3.2); set-up: species or system rat; settings: inhaled 60 minutes before provocation; tiotropium 1 μg/kg; comparative example 11 1, 10 and 100 μg/kg
Procedure: The bronchoconstriction model (see Hoymann H G. Lung function measurements in rodents in safety pharmacology studies. Front Pharmacol 2012; 3:156) used Male Brown Norway rats (Charles River, Sulzfeld, Germany; 10-12 weeks old) randomized to three treatment groups (comparative example 11, 1 μg/kg, 10 μg/kg, and 100 μg/kg; n=12-13), one positive control group (tiotropium 1 μg/kg; n=12), and one vehicle control group (n=17). Animals were treated with the inhaled test compounds 60 minutes before provocation. Comparative example 11, vehicle, or tiotropium were aerosolized using a micro feeding system and a dispersion nozzle operated with pressurized air. The aerosol concentration was determined by filter sampling with gravimetrical analysis and monitored continuously by a photometer. The lung-deposited doses were assessed from the inhalation dose (Raabe O G, Al-Bayati M A, Teague S V, Rasolt A. Regional Deposition of Inhaled Monodisperse Coarse and Fine Aerosol Particles in Small Laboratory Animals. The Annals of Occupational Hygiene 1988; 32:53-63.). […] After reaching a steady state in respiration, lung function of the spontaneously breathing animal was recorded as baseline values for ≥2 minutes; amongst other parameters, lung resistance (=RL) and dynamic compliance (=Cdyn) were used to assess bronchoconstriction. […]

[2] = tested on: guinea pig trachea pre-contracted with carbachol; assay: Bronchorelaxation in vitro: carbachol pre-contracted guinea pig trachea rings, wash-out recovery factor (C-3.1); settings: 1 μmol/l
Procedure: Male Dunkin Hartley guinea pig were euthanized using carbon dioxide. The primary bronchus was removed and placed in ice-cold Krebs-Henseleit buffer of following composition (in mmol/l): […] For recording of isometric tension, the bronchial rings were mounted between two hooks. One hook was connected to a force transducer the other was moveable and allowed a precise adjustment of resting tension at 1.5 g. During the equilibration period of 60 min the tissue was washed every 20 min with buffer. […] After 30 min, a cumulative dose response curve of the test compound was constructed. Every concentration was incubated till the response was stable. […] The relaxation was expressed as percentage tension. […] The recovery factor was calculated as a ratio of bronchodilation 1 h after compound application and bronchodilation 1 h after removal (wash out) of test compound. […] Relaxation via Cinaciguat (comparative example 1) and Riociguat (comparative example 2) reached a steady state within the 1 h incubation time. […] In contrast, relaxation induced by comparative example 11 was further progressing during the wash out period (recovery factor 1.41).

[3] = tested on: systemic blood pressure; assay: First clinical studies in healthy volunteers: systemic blood pressure; assay type: in vivo, human; settings: up to 4000 μg, dry powder inhaled

Row | Compound | bronchodilatory efficacy (RL) [1] | Relaxation (%) (timepoint at 70 min) Mean [2] | Relaxation (%) (timepoint at 130 min) Mean [2] | effect on systemic blood pressure in healthy volunteers [3]
1 | O=C(O)c1ccc(CCN(CCc2ccccc2OCc2ccc(-c3ccc(C(F)(F)F)cc3)cc2Cl)[C@H]2CCCc3nc(C(=O)O)ccc32)cc1 [comparative example 11, (5S)-5-{[2-(4-carboxyphenyl)ethyl][2-(2-{[3-chloro-4′-(trifluoromethyl)[biphenyl]-4-yl]methoxy}phenyl)ethyl]amino}-5,6,7,8-tetrahydroquinoline-2-carboxylic acid] | dose-dependent significant (1, 10 and 100 μg/kg) bronchodilating effect | 72.2% | 51.3% | 
2 | O=C(O)c1ccc(CCN(CCc2ccccc2OCc2ccc(-c3ccc(C(F)(F)F)cc3)cc2Cl)[C@H]2CCCc3nc(C(=O)O)ccc32)cc1 [example 4, (5S)-{[2-(4-Carboxyphenyl)ethyl][2-(2-{[3-chloro-4′-(trifluoromethyl)biphenyl-4-yl]methoxy}phenyl)-ethyl]amino}-5,6,7,8-tetrahydroquinoline-2-carboxylic acid] |  |  |  | no clinically meaningful effect on systemic blood pressure
